Patent US11773078B2, “Furin inhibitors” (Glaxosmithkline Intellectual Property Development Limited, priority 2018, dated 2023)

Key:
[1] = target: T1, Furin (108-574-Tev-Flag-His) enzyme (Homo sapiens, UniProt P09958); experiment: Furin enzyme assay; format: biochemical; details: for IC50: read-out: furin enzyme pIC50 (converted)
T1 construct: Furin (108-574-Tev-Flag-His) enzyme was expressed and purified from CHO cells; TEV cleavage site (C); FLAG (C); His (C); made in house; host or cells: CHO cells
In short: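 CHO-expressed, purified furin construct at 40 pM in 100 mM HEPES pH7.5, 1 mM CaCl2, 0.005% Triton X-100. Eleven-point 1:3 series, 0.00017–10 μM final, incubated 2 h at room temperature and read on Envision. pXC50 from four-parameter fit.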

[2] = target: T2, furin (endogenous protease) in U20S cells (Homo sapiens, UniProt P09958); experiment: Furin cell-based assay (image-based, Golgi-targeted GFP with BMP10 furin/PCSK cleavage site); details: 24-hour incubation, read-out: furin golgi cell pXC50 (converted);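 also: Read-out is mean GFP fluorescence of Golgi puncta per cell by high-content imaging, retained when furin inhibited, over an eleven-point 0.00017–10 µM series, four-parameter fit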
T2 construct: the endogenous protease cleaves GFP; endogenous in cells; host or cells: U2OS cells transduced with a BacMam reporter
T2 sequence (P09958 108-794): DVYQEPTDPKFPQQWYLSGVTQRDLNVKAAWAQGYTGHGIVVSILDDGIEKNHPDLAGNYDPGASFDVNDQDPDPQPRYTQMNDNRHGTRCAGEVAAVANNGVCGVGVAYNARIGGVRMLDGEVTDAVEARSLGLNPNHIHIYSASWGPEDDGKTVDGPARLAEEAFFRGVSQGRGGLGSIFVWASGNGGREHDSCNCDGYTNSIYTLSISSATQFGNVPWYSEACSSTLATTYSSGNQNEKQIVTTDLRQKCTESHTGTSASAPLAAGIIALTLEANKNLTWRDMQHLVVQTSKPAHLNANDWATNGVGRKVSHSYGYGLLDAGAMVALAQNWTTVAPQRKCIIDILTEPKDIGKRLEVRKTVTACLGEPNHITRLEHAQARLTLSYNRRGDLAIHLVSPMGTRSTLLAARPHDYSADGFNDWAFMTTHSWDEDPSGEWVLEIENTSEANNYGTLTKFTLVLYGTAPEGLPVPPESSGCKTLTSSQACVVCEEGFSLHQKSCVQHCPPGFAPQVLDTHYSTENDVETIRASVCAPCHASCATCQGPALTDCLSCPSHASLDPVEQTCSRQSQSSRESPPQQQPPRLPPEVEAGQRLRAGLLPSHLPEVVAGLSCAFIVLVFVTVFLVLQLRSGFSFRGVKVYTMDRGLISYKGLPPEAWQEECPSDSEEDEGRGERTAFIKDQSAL

T1 sequence (P09958 108-574): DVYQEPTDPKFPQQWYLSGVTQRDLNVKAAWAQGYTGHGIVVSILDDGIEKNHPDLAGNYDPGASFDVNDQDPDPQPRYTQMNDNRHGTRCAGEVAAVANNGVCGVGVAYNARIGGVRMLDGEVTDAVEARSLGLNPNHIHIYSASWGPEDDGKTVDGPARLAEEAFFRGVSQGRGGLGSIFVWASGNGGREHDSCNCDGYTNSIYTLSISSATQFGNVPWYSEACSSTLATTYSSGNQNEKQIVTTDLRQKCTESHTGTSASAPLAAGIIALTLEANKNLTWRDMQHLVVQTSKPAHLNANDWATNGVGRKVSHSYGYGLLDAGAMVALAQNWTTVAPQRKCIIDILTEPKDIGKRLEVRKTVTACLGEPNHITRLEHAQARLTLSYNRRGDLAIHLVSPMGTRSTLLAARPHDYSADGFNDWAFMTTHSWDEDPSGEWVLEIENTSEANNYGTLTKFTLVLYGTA

**Q.** With `CNC1CCN(c2ccc(Oc3cc(CN4CCC(CNC(C)=O)CC4)cc(-c4cc(Cl)cc(Cl)c4)n3)cn2)CC1` [Example 193, N-((1-((2-(3,5-dichlorophenyl)-6-((6-(4-(methylamino)piperidin-1-yl)pyridin-3-yl)oxy)pyridin-4-yl)methyl)piperidin-4-yl)methyl)acetamide] as the molecule, how does the “furin enzyme pIC50” value [1] read?
**A.** 9

**Q.** What about the EC50 [2] of the same molecule?
**A.** 3.16 nM

**Q.** For `CC(=O)NCC1CCN(Cc2cc(Oc3ccc(N4CC5CNCC5C4)nc3)nc(-c3cc(Cl)cc(Cl)c3)c2)CC1` (stereo not drawn) [Example 194, N-((1-((2-(3,5-dichlorophenyl)-6-((6-(hexahydropyrrolo[3,4-c]pyrrol-2(1H)-yl)pyridin-3-yl)oxy)pyridin-4-yl)methyl)piperidin-4-yl)methyl)acetamide], which “furin enzyme pIC50” value [1] is on record?
**A.** 9.1

**Q.** And the EC50 [2]?
**A.** 3.16 nM

**Q.** `CC(=O)NCC1CCN(Cc2cc(Oc3ccc(N4CCNC(CO)C4)nc3)nc(-c3cc(Cl)cc(Cl)c3)c2)CC1` (stereo not drawn) [Example 195, N-((1-((2-(3,5-dichlorophenyl)-6-((6-(3-(hydroxymethyl)piperazin-1-yl)pyridin-3-yl)oxy)pyridin-4-yl)methyl)piperidin-4-yl)methyl)acetamide] was tested. Which “furin enzyme pIC50” value [1] did it give?
**A.** 9.2

**Q.** What about the EC50 [2] of the same molecule?
**A.** 1 nM

**Q.** Which “furin enzyme pIC50” value [1] does the source give for `CC(=O)NCC1CCN(Cc2cc(Oc3ccc(N4CCNC(C)(C)C4)nc3)nc(-c3cc(Cl)cc(Cl)c3)c2)CC1` [Example 197, N-((1-((2-(3,5-dichlorophenyl)-6-((6-(3,3-dimethylpiperazin-1-yl)pyridin-3-yl)oxy)pyridin-4-yl)methyl)piperidin-4-yl)methyl)acetamide] here?
**A.** 9.2

**Q.** And the EC50 [2]?
**A.** 2 nM

**Q.** How did the “furin enzyme pIC50” value [1] turn out when `CC(=O)NCC1CCN(Cc2cc(Oc3ccc(N4CCC(N)C(C)(C)C4)nc3)nc(-c3cc(Cl)cc(Cl)c3)c2)CC1` (stereo not drawn) [Example 198, N-((1-((2-((6-(4-amino-3,3-dimethylpiperidin-1-yl)pyridin-3-yl)oxy)-6-(3,5-dichlorophenyl)pyridin-4-yl)methyl)piperidin-4-yl)methyl)acetamide] was run?
**A.** 9.3

**Q.** And the EC50 [2]?
**A.** 2 nM

**Q.** `CC(=O)NCC1CCN(Cc2cc(Oc3ccc(N4CCC5(CCNC5)C4)nc3)nc(-c3cc(Cl)cc(Cl)c3)c2)CC1` (stereo not drawn) [Example 199, N-((1-((2-((6-(2,7-diazaspiro[4.4]nonan-2-yl)pyridin-3-yl)oxy)-6-(3,5-dichlorophenyl)pyridin-4-yl)methyl)piperidin-4-yl)methyl)acetamide] was tested. Which “furin enzyme pIC50” value [1] did it give?
**A.** 9.2

**Q.** What about the EC50 [2] of the same molecule?
**A.** 5.01 nM

**Q.** With `CC(=O)NCC1CCN(Cc2cc(Oc3ccc(N4CCN(C)CC4)nc3)nc(-c3cc(Cl)cc(Cl)c3)c2)CC1` [Example 200, N-((1-((2-(3,5-dichlorophenyl)-6-((6-(4-methylpiperazin-1-yl)pyridin-3-yl)oxy)pyridin-4-yl)methyl)piperidin-4-yl)methyl)acetamide] as the molecule, how does the “furin enzyme pIC50” value [1] read?
**A.** 9.1

**Q.** What about the EC50 [2] of the same molecule?
**A.** 0.501 nM

**Q.** With `CNCc1cc(Oc2ccc(N3CC4CNCC4C3)nc2)cc(-c2cc(Cl)cc(Cl)c2)c1` (stereo not drawn) [Example 201, 1-(3′,5′-dichloro-5-((6-(hexahydropyrrolo[3,4-c]pyrrol-2(1H)-yl)pyridin-3-yl)oxy)-[1,1′-biphenyl]-3-yl)-N-methylmethanamine] as the molecule, how does the “furin enzyme pIC50” value [1] read?
**A.** 9.4

**Q.** And the EC50 [2]?
**A.** 20 nM

**Q.** `CNCc1cc(Oc2ccc(N3C[C@@H]4C[C@H]3CN4)nc2)cc(-c2cc(Cl)cc(Cl)c2)c1` [Example 202, 1-(5-((6-((1S,4S)-2,5-diazabicyclo[2.2.1]heptan-2-yl)pyridin-3-yl)oxy)-3′,5′-dichloro-[1,1′-biphenyl]-3-yl)-N-methylmethanamine] was tested. Which “furin enzyme pIC50” value [1] did it give?
**A.** 8.6

**Q.** And the EC50 [2]?
**A.** 39.8 nM

**Q.** With `CN1C[C@@H]2C[C@H]1CN2c1ccc(Oc2cc(CN3CCC(CC(=O)O)CC3)cc(-c3cc(Cl)cc(Cl)c3)n2)cn1` [Example 203, 2-(1-((2-(3,5-dichlorophenyl)-6-((6-((1S,4S)-5-methyl-2,5-diazabicyclo[2.2.1]heptan-2-yl)pyridin-3-yl)oxy)pyridin-4-yl)methyl)piperidin-4-yl)acetic acid] as the molecule, how does the “furin enzyme pIC50” value [1] read?
**A.** 8.7

**Q.** What about the EC50 [2] of the same molecule?
**A.** 12.6 nM

**Q.** `CC(CCN1CCN(c2ncc(Oc3cc(CN4CCC(CC(=O)O)CC4)cc(-c4cc(Cl)cc(Cl)c4)n3)cn2)CC1)[S+](C)[O-]` (stereo not drawn) [Example 204, 2-(1-((2-(3,5-Dichlorophenyl)-6-((2-(4-(3-(methylsulfinyl)butyl)piperazin-1-yl)pyrimidin-5-yl)oxy)pyridin-4-yl)methyl)piperidin-4-yl)acetic acid] was tested. Which “furin enzyme pIC50” value [1] did it give?
**A.** 8.7

**Q.** And the EC50 [2]?
**A.** 31.6 nM

**Q.** Which “furin enzyme pIC50” value [1] does the source give for `CC(CCN1CCN(c2ncc(Oc3cc(CN4CCC(CC(=O)O)CC4)cc(-c4cc(Cl)cc(Cl)c4)n3)cn2)CC1)S(C)(=O)=O` (stereo not drawn) [Example 205, 2-(1-((2-(3,5-Dichlorophenyl)-6-((2-(4-(3-(methylsulfonyl)butyl)piperazin-1-yl)pyrimidin-5-yl)oxy)pyridin-4-yl)methyl)piperidin-4-yl)acetic acid] here?
**A.** 8.6

**Q.** What about the EC50 [2] of the same molecule?
**A.** 15.8 nM

**Q.** What does the source list for `CNC(=O)OCC1CCN(Cc2cc(Oc3cnc(N4CCN(C(C)CCC(=O)O)CC4)nc3)nc(-c3cc(Cl)cc(Cl)c3)c2)CC1` (stereo not drawn) [Example 208]?
**A.** IC50 [1]: 0.0126 nM; EC50 [2]: 10 nM

**Q.** What does the source list for `CNC(=O)OCC1CCN(Cc2cc(Oc3cnc(N4CCN(C(C)CCO)CC4)nc3)nc(-c3cc(Cl)cc(Cl)c3)c2)CC1` (stereo not drawn) [Example 209, (1-((2-(3,5-dichlorophenyl)-6-((2-(4-(4-hydroxybutan-2-yl)piperazin-1-yl)pyrimidin-5-yl)oxy)pyridin-4-yl)methyl)piperidin-4-yl)methyl methylcarbamate]?
**A.** furin enzyme pIC50 [1]: 9.6; EC50 [2]: 2.51 nM

**Q.** What does the source list for `CNC(=O)OCC1CCN(Cc2cc(Oc3cnc(N4CCN(CCCS(C)(=O)=O)CC4)nc3)nc(-c3cc(Cl)cc(Cl)c3)c2)CC1` [Example 210, (1-((2-(3,5-dichlorophenyl)-6-((2-(4-(3-(methylsulfonyl)propyl)piperazin-1-yl)pyrimidin-5-yl)oxy)pyridin-4-yl)methyl)piperidin-4-yl)methyl methylcarbamate]?
**A.** furin enzyme pIC50 [1]: 8.7; EC50 [2]: 3.98 nM

**Q.** Which results are given for `CNC(=O)OCC1CCN(Cc2cc(Oc3cnc(N4CCN(C5CC(C(=O)O)C5)CC4)nc3)nc(-c3cc(Cl)cc(Cl)c3)c2)CC1` (stereo not drawn) [Example 211, 3-(4-(5-((6-(3,5-dichlorophenyl)-4-((4-(((methylcarbamoyl)oxy)methyl)piperidin-1-yl)methyl)pyridin-2-yl)oxy)pyrimidin-2-yl)piperazin-1-yl)cyclobutanecarboxylic acid]?
**A.** furin enzyme pIC50 [1]: 10.1; EC50 [2]: 25.1 nM

**Q.** How did the “furin enzyme pIC50” value [1] turn out when `CN1CCN(c2ccc(Oc3cc(CN4CCC(CC(=O)O)CC4)cc(-c4cc(Cl)cc(Cl)c4)n3)cn2)CC1` [Example 212, 2-(1-((2-(3,5-dichlorophenyl)-6-((6-(4-methylpiperazin-1-yl)pyridin-3-yl)oxy)pyridin-4-yl)methyl)piperidin-4-yl)acetic acid] was run?
**A.** 9

**Q.** What about the EC50 [2] of the same molecule?
**A.** 31.6 nM

**Q.** `CC(CC1CCN(Cc2cc(Oc3ccc(N4CCN(C)CC4)nc3)nc(-c3cc(Cl)cc(Cl)c3)c2)CC1)C(=O)O` (stereo not drawn) [Example 213, 3-(1-((2-(3,5-dichlorophenyl)-6-((6-(4-methylpiperazin-1-yl)pyridin-3-yl)oxy)pyridin-4-yl)methyl)piperidin-4-yl)-2-methylpropanoic acid] was tested. Which “furin enzyme pIC50” value [1] did it give?
**A.** 8.9

**Q.** And the EC50 [2]?
**A.** 25.1 nM

**Q.** How did the “furin enzyme pIC50” value [1] turn out when `CC(=O)NCC1CCN(Cc2cc(Oc3cnc(N4CCN(CCC(C)S(C)(=O)=O)CC4)nc3)nc(-c3cc(Cl)cc(Cl)c3)c2)CC1` (stereo not drawn) [Example 214, N-((1-((2-(3,5-dichlorophenyl)-6-((2-(4-(3-(methylsulfonyl)butyl)piperazin-1-yl)pyrimidin-5-yl)oxy)pyridin-4-yl)methyl)piperidin-4-yl)methyl)acetamide] was run?
**A.** 9.1

**Q.** What about the EC50 [2] of the same molecule?
**A.** 2.51 nM

**Q.** For `CC(=O)NCC1CCN(Cc2cc(Oc3cnc(N4CCN(C(C)CCC(=O)O)CC4)nc3)nc(-c3cc(Cl)cc(Cl)c3)c2)CC1` (stereo not drawn) [Example 215, 4-(4-(5-((4-((4-(acetamidomethyl)piperidin-1-yl)methyl)-6-(3,5-dichlorophenyl)pyridin-2-yl)oxy)pyrimidin-2-yl)piperazin-1-yl)pentanoic acid], which IC50 [1] is on record?
**A.** 0.398 nM

**Q.** What about the EC50 [2] of the same molecule?
**A.** 10 nM

**Q.** With `CC(=O)NCC1CCN(Cc2cc(Oc3cnc(N4CCN(C5CC(C(=O)O)C5)CC4)nc3)nc(-c3cc(Cl)cc(Cl)c3)c2)CC1` (stereo not drawn) [Example 216, 3-(4-(5-((4-((4-(acetamidomethyl)piperidin-1-yl)methyl)-6-(3,5-dichlorophenyl)pyridin-2-yl)oxy)pyrimidin-2-yl)piperazin-1-yl)cyclobutanecarboxylic acid] as the molecule, how does the “furin enzyme pIC50” value [1] read?
**A.** 10.2

**Q.** What about the EC50 [2] of the same molecule?
**A.** 15.8 nM

**Q.** Which results are given for `COC(=O)NCC1CCN(Cc2cc(Oc3ccc(N4CCN(CCCS(C)(=O)=O)CC4)nc3)nc(-c3cc(Cl)cc(Cl)c3)c2)CC1` [Example 217, methyl ((1-((2-(3,5-dichlorophenyl)-6-((6-(4-(3-(methylsulfonyl)propyl)piperazin-1-yl)pyridin-3-yl)oxy)pyridin-4-yl)methyl)piperidin-4-yl)methyl)carbamate]?
**A.** furin enzyme pIC50 [1]: 9.8; EC50 [2]: 5.01 nM

**Q.** What does the source list for `CC(=O)NCC1CCN(Cc2cc(Oc3ccc(N4CCN(CCC(C)S(C)(=O)=O)CC4)nc3)nc(-c3cc(Cl)cc(Cl)c3)c2)CC1` (stereo not drawn) [Example 218, N-((1-((2-(3,5-dichlorophenyl)-6-((6-(4-(3-(methylsulfonyl)butyl)piperazin-1-yl)pyridin-3-yl)oxy)pyridin-4-yl)methyl)piperidin-4-yl)methyl)acetamide]?
**A.** furin enzyme pIC50 [1]: 10.1; EC50 [2]: 2 nM

**Q.** With `CNC(=O)NCC1CCN(Cc2cc(Oc3ccc(N4CCN(CCC(C)S(C)(=O)=O)CC4)nc3)nc(-c3cc(Cl)cc(Cl)c3)c2)CC1` (stereo not drawn) [Example 219, 1-((1-((2-(3,5-dichlorophenyl)-6-((6-(4-(3-(methylsulfonyl)butyl)piperazin-1-yl)pyridin-3-yl)oxy)pyridin-4-yl)methyl)piperidin-4-yl)methyl)-3-methylurea] as the molecule, how does the “furin enzyme pIC50” value [1] read?
**A.** 9.8

**Q.** What about the EC50 [2] of the same molecule?
**A.** 0.398 nM
